Assays:
[1] = molecular target: T1, PDE4B: The catalytic domain of human PDE4B from S152-S528 (Homo sapiens, UniProt Q07343); assay: PDE4 IC50 determination by Scintillation Proximity Assay, PDE4B; assay type: biochemical; details: Table 1B, Formula I compounds; read-out: IC50 PDE4B
T1 construct: His6 (N); thrombin cleavage site (N); made in house; host or cells: E. coli
Method in brief: (§1)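 Enzyme was added to compound and [^3H]cAMP, then incubated 30 min at 30° (PDE4B 80 ng/ml; PDE4D 4 ng/ml). Product [^3H]AMP bound to SPA beads and was counted. IC50 was fitted by non-linear regression against DMSO and roflumilast controls.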

PDE4D = molecular target: T2, PDE4D (Homo sapiens, UniProt Q08499); assay: PDE4 IC50 determination by Scintillation Proximity Assay, PDE4D; assay type: biochemical; details: Table 1B, Formula I compounds; read-out: IC50 PDE4D
T2 construct: PDE4D: The catalytic domain of human PDE4B from S3 16-V692; His6 (N); thrombin cleavage site (N); made in house; host or cells: E. coli
Method in brief: as §1

T1 sequence (Q07343 with tags, fused parts or gaps): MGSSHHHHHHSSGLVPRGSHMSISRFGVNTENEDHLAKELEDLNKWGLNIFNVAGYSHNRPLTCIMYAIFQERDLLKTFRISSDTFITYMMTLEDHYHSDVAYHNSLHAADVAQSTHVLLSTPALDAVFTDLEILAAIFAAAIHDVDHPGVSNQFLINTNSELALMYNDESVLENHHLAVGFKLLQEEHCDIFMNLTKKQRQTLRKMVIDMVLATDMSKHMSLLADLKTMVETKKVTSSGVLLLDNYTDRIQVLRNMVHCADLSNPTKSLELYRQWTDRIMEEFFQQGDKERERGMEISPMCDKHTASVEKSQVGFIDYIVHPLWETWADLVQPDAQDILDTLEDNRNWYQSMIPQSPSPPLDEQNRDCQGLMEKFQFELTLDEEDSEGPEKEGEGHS
T2 sequence (Q08499 380-756): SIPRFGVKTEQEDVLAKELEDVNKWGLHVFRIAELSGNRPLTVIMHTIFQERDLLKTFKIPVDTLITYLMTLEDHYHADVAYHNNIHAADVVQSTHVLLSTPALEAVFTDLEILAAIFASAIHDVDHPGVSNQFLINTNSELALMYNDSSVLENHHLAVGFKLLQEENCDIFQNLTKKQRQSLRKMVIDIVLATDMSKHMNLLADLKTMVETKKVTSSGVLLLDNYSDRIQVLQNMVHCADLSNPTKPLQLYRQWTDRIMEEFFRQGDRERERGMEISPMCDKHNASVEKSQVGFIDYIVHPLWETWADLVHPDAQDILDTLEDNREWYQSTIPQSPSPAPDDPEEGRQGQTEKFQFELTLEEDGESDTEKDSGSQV

SMILES	IC50 [1] [µM]	IC50 (PDE4D) [µM]
N#Cc1c(NC2CCOC2=O)sc(C(=O)c2ccccc2Cl)c1N (stereo not drawn) [Compound 1-116, 4-Amino-5-(2-chloro-benzoyl)-2-(2-oxo-tetrahydro-furan-3-ylamino)-thiophene-3-carbonitrile]	> 10	> 10
COc1ccc(Nc2sc(C(=O)c3cccc(Cl)c3)c(N)c2C#N)cc1 [Compound 1-117, 4-Amino-5-(3-chloro-benzoyl)-2-(4-methoxy-phenylamino)-thiophene-3-carbonitrile]	< 10	< 10
COC(=O)C(CC(C)C)Nc1sc(C(=O)c2cccc(Cl)c2)c(N)c1C#N (stereo not drawn) [Compound 1-118, 2-[4-Amino-5-(3-chloro-benzoyl)-3-cyano-thiophen-2-ylamino]-4-methyl-pentanoic acid methyl ester]	< 10	> 10
N#Cc1c(Nc2ccc(C(=O)NC3CCOC3=O)cc2)sc(C(=O)c2cccc(Cl)c2)c1N (stereo not drawn) [Compound 1-119, 4-[4-Amino-5-(3-chloro-benzoyl)-3-cyano-thiophen-2-ylamino]-N-(2-oxo-tetrahydro-furan-3-yl)-benzamide]	< 10	< 10
N#Cc1c(NC2CCCC2)sc(C(=O)c2cccc(Cl)c2)c1N [Compound 1-120, 4-Amino-5-(3-chloro-benzoyl) 2-cyclopentylamino-thiophene-3-carbonitrile]	< 10	< 10
COC(=O)C(CC(C)C)Nc1sc(C(=O)c2csc3ccccc23)c(N)c1C#N (stereo not drawn) [Compound 1-121, 2-[4-Amino-5-(benzo[b]thiophene-3-carbonyl)-3-cyano-thiophen-2-ylamino]-4-methyl-pentanoic acid methyl ester]	< 10	< 10
COC(=O)C(CCSC)Nc1sc(C(=O)c2csc3ccccc23)c(N)c1C#N (stereo not drawn) [Compound 1-122, 2-[4-Amino-5-(benzo[b]thiophene-3-carbonyl)-3-cyano-thiophen-2-ylamino]-4-methylsulfanyl-butyric acid methyl ester]	< 10	< 10
N#Cc1c(Nc2ccc(C(=O)NC3CCOC3=O)cc2)sc(C(=O)c2csc3ccccc23)c1N (stereo not drawn) [Compound 1-123, 4-[4-Amino-5-(benzo[b]thiophene-3-carbonyl)-3-cyano-thiophen-2-ylamino]-N-(2-oxo-tetrahydro-furan-3-yl)-benzamide]	< 10	< 10
N#Cc1c(NC2CCCC2)sc(C(=O)c2csc3ccccc23)c1N [Compound 1-124, 4-Amino-5-(benzo[b]thiophene-3-carbonyl)-2-cyclopentylamino-thiophene-3-carbonitrile]	< 10	> 10
COC(=O)c1ccccc1Nc1sc(C(=O)c2cnn(-c3ccccc3)c2C)c(N)c1C#N [Compound 1-126, 2-[4-Amino-3-cyano-5-(5-methyl-1-phenyl-1H-pyrazole-4-carbonyl)-thiophen-2-ylamino]-benzoic acid methyl ester]	< 10	< 10
Cc1c(C(=O)c2sc(Nc3ccc(C(=O)NC4CCOC4=O)cc3)c(C#N)c2N)cnn1-c1ccccc1 (stereo not drawn) [Compound 1-127, 4-[4-Amino-3-cyano-5-(5-methyl-1-phenyl-1H-pyrazole-4-carbonyl)-thiophen-2-ylamino]-N-(2-oxo-tetrahydro-furan-3-yl)-benzamide]	< 10	< 10
Cc1onc(-c2ccccc2)c1C(=O)c1sc(Nc2ccccc2F)c(C#N)c1N [Compound 1-128, 4-Amino-2-(2-fluoro-phenylamino)-5-(5-methyl-3-phenyl-isoxazole-4-carbonyl)-thiophene-3-carbonitrile]	< 10	< 10
COC(=O)C(CCSC)Nc1sc(C(=O)c2c(-c3ccccc3)noc2C)c(N)c1C#N (stereo not drawn) [Compound 1-131, 2-[4-Amino-3-cyano-5-(5-methyl-3-phenyl-isoxazole-4-carbonyl)-thiophen-2-ylamino]-4-methylsulfanyl-butyric acid methyl ester]	< 10	> 10
COc1ccc(CNc2sc(C(=O)c3c(-c4ccccc4)noc3C)c(N)c2C#N)cc1OC [Compound 1-132, 4-Amino-2-(3,4-dimethoxy-benzylamino)-5-(5-methyl-3-phenyl-isoxazole-4-carbonyl)-thiophene-3-carbonitrile]	< 10	< 10
Cc1onc(-c2ccccc2)c1C(=O)c1sc(Nc2ccc(C(=O)NC3CCOC3=O)cc2)c(C#N)c1N (stereo not drawn) [Compound 1-133, 4-[4-Amino-3-cyano-5-(5-methyl-3-phenyl-isoxazole-4-carbonyl)-thiophen-2-ylamino]-N-(2-oxo-tetrahydro-furan-3-yl)-benzamide]	< 10	< 10
Cc1onc(-c2ccccc2)c1C(=O)c1sc(NC2CCOC2=O)c(C#N)c1N (stereo not drawn) [Compound 1-134, 4-Amino-5-(5-methyl-3-phenyl-isoxazole-4-carbonyl)-2-(2-oxo-tetrahydro-furan-3-ylamino)-thiophene-3-carbonitrile]	< 10	> 10
CCOC(=O)c1cc(C(=O)c2sc(NCCN3CCCCC3)c(C#N)c2N)on1 [Compound 1-135, 5-[3-Amino-4-cyano-5-(2-piperidin-1-yl-ethylamino)-thiophene-2-carbonyl]-isoxazole-3-carboxylic acid ethyl ester]	< 10	< 10
CCOC(=O)c1cc(C(=O)c2sc(NC(=O)c3ccccc3C)c(C#N)c2N)on1 [Compound 1-136, 5-[3-Amino-4-cyano-5-(2-methyl-benzoylamino)-thiophene-2-carbonyl]-isoxazole-3-carboxylic acid ethyl ester]	> 10	> 10
CCOC(=O)c1cc(C(=O)c2sc(NC(CC(C)C)C(=O)OC)c(C#N)c2N)on1 (stereo not drawn) [Compound 1-137, 5-[3-Amino-4-cyano-5-(1-methoxycarbonyl-3-methyl-butylamino)-thiophene-2-carbonyl]-isoxazole-3-carboxylic acid ethyl ester]	< 10	> 10
CCOC(=O)c1cc(C(=O)c2sc(Nc3ccc(C(=O)NC4CCOC4=O)cc3)c(C#N)c2N)on1 (stereo not drawn) [Compound 1-138]	< 10	< 10
CCOC(=O)c1cc(C(=O)c2sc(NC3CCOC3=O)c(C#N)c2N)on1 (stereo not drawn) [Compound 1-140, 5-[3-Amino-4-cyano-5-(2-oxo-tetrahydro-furan-3-ylamino)-thiophene-2-carbonyl]-isoxazole-3-carboxylic acid ethyl ester]	< 10	> 10
COC(=O)C(CC(C)C)Nc1sc(C(=O)c2cc(-c3ccccc3)no2)c(N)c1C#N (stereo not drawn) [Compound 1-141, 2-[4-Amino-3-cyano-5-(3-phenyl-isoxazole-5-carbonyl)-thiophen-2-ylamino]-4-methyl-pentanoic acid methyl ester]	< 10	< 10
N#Cc1c(Nc2ccccc2F)sc(C(=O)c2ccccn2)c1N [Compound 1-144, 4-Amino-2-(2-fluoro-phenylamino)-5-(pyridine-2-carbonyl)-thiophene-3-carbonitrile]	< 10	< 10
COc1ccc(Nc2sc(C(=O)c3ccccn3)c(N)c2C#N)cc1 [Compound 1-145, 4-Amino-2-(4-methoxy-phenylamino)-5-(pyridine-2-carbonyl)-thiophene-3-carbonitrile]	> 10	> 10
